Experimental data as given in patent US9931313B2, “Methods of treating proliferative disorders with malate or derivatives thereof” (Beth Israel Deaconess Medical Center, Inc., priority 2012, dated 2018).

Tests used:
A549 cells [1] = experiment: Proliferation assay of A549 cells treated with DMM; format: cell-based, human
Experimental: Control and ME2 deficient cell lines were plated in 6-well plate at a density of 1×10^5 cells/well and maintained at 37° C. in a 5% CO2 incubator. After 24, 72, 120 and 168 hours of initial plating, 0.5 ml cells were diluted into 10 ml of Hanks' buffer and counted by Coulter counter. All samples were assayed in triplicate to generate proliferation curves, as described in Benson et al., Nature 441: 451-456 (2006). For the clonogenic assay, A549 with stably expression ME2 knockdown and control shRNA cells were seeded in a 6-well plate at a density of 200 cells per well. Colonies were fixed with 10% formaldehyde for 5 min and stained with 0.5% crystal violet for 30 min and counted with NIH image software.
To test whether malate accumulation may damage mitochondrial function and further inhibit cell growth, an exogenous form of malate was delivered in vitro. Exogenous malate may mimic the phenotype-induced by ME2 knockdown. Therefore, we supplemented exogenous cell-permeable malate (Heart et al., Am. J. Physiol. 296: E1354-1362 (2009)) in A549 cell growth media and compared the phenotype with ME2 knockdown cells. DMM, being cell permeable, was used as an exogenous substitute for malate.

A549 cells [2] = experiment: Annexin-V apoptosis / cell death assay in A549 cells; format: cell-based, human; details: for DMM-induced cell death: DMM with NAC or GSH
Experimental: (§1) Apoptosis was measured by staining with the Nexin reagent using a Nexin kit and counting on the Guava PCA-96 system (Guava Technologies) as per the manufacture's protocol. Briefly, cells were harvested and re-suspended in 100 μl of 1× Nexin buffer, and then mixed with 100 μl of Annexin-V-PE, and Nexin 7-AAD. The cells were allowed to incubate for 20 minutes at room temperature and analyzed in the Guava flow cytometer.

A549 cells [3] = experiment: Cellular ROS by CM-H2DCFDA flow cytometry in A549 cells; format: cell-based, human; details: for DMM-induced ROS production: 10 or 20 mM DMM with 20 mM NAC or 20 mM GSH
Experimental: (§2) Intracellular ROS production was measured by staining with CM-H2DCFDA. CM-H2DCFDA is a cell-permeant indicator for ROS that is nonfluorescent until removal of the acetate groups by intracellular esterases and oxidation occurs within the cell. The procedure for measuring ROS was carried out as described in Trachootham et al., in Cancer Cell. 10: 241-252 (2006), with minor modifications. Briefly, A549 cells transduced with shRNA lentiviral particles or control vector were selected with puromycin for 2 weeks, and then incubated with 5 μM CM-H2DCF-DA for 3 hours, followed by flow cytometry using a FACSCalibur equipped with CellQuest Pro software. Superoxide radicals (O2^−) were measured separately using the MitoSOX™ reagent according to the manufacturer's protocol (Invitrogen). In brief, cells with or without ME2 knockdown were incubated with 5 μM MitoSOX™ reagent for 10 minutes at 37° C., then washed three times and observed under a fluorescence microscope using the Rhodamine filter and Axiovision software for capturing images (Zeiss, Germany).

Akt and PDK1 = experiment: Western blotting of Akt/PDK1 phosphorylation and differentiation marker in A549 cells; format: cell-based, human; details: for DMM-induced differentiation / basal Akt activity in DMM-treated A549 cells: DMM in combination with NAC or GSH; for basal Akt activity in DMM-treated A549 cells: p-AKT473
Experimental: A549 cells with and without ME2 knockdown were lysed with RIPA buffer (50 mM Tris-HCl, pH 7.4, 150 mM NaCl, 1% NP-40, 0.1% SDS and 0.5% sodium deoxycholate), and equal amount of proteins were resolved by 4%-12% Bis-Tris gels (Invitrogen), as previously described in Ren et al., Proc. Natl Acad. Sci. USA 104: 10465-10469 (2007). Briefly, the proteins were transferred to a PVDF membrane, and membranes were blocked with BLOTTO (5% nonfat dry milk and 0.1% Tween 20 in PBS), and incubated with antisera generated against ME2, phospho-AKT380, phosphor-473, AKT1/2, phosphor-ERK1/2, ERK1, vimentin, GATA-1 or β-tubulin antibodies, respectively. Membranes were washed in PBS plus 0.1% Tween 20 and probed with anti-rabbit or anti-mouse HRP-conjugated secondary antibody (both at 1:10,000 dilution), and proteins were detected using the ECL Plus chemiluminescence detection reagent (Amersham Biosciences).

A549 cells [4] = experiment: Mitochondrial superoxide by MitoSOX Red in A549 cells; format: cell-based, human
Experimental: as §2
We measured the ROS source using MitoSOX™ Red, a reagent that selectively targeted to the mitochondria.

[5] = tested on: normal human derived fibroblast (NHDF) and normal lung epithelial cells; experiment: ROS by CM-H2DCFDA in normal cells; format: cell-based; details: 5, 10, 20 mM DMM
Experimental: (§3) A: Treatment with DMM induced ROS production in both normal human derived fibroblast (NHDF) and normal lung epithelial cells (Normal lung). ROS was detected by flow cytometry using indicator CM-H2DCFDA. Data are provided for the following curves (from left to right): 0, 5 mM, 10 mM, or 20 mM DMM. […] Cell death was analyzed by Annexin V reagent. Each histogram is representative of three experiments
as §2, with “Briefly, A549 cells transduced with shRNA lentiviral particles or control vector were selected with puromycin for 2 weeks, and then incubated with 5 μM CM-H2DCF-DA for 3 hours, followed by flow cytometry using a FACSCalibur equipped with CellQuest Pro software.” left out

[6] = tested on: normal human derived fibroblast (NHDF) and normal lung epithelial cells; experiment: Cell death by Annexin V in normal cells; format: cell-based
Experimental: as §3, §1

A549 xenograft tumors = experiment: A549 xenograft in nude mice treated with DMM, cisplatin or both; format: in vivo, athymic nude mice
Experimental: Approximately 5×10^6 control pLKO cells were subcutaneously implanted into female athymic nude mice. Mice were treated with DMM, cisplatin (CP), a combination of cisplatin with DMM (CP+DMM), or control (PBS), as described herein. Tumor size was measured and calculated. B: Direct injection of DMM into xenograft tumors caused shrinkage and ulceration of tumors, as compared to control with PBS.
Animal experiments were performed under federal guidelines and approved by the Institutional Animal Care and Use Committee (IACUC) of the Beth Israel Deaconess Medical Center (Approval number 0342007). A549 xenografts in nude mice were generated by following the description of Verrax et al., in Biochem. Pharmacol. 72: 671-680 (2006). Briefly, approximately 10^7 ME2 deficient or control A549 cells resuspended in 200 μl of a serum-free culture medium/Matrigel mixture (1:1) were subcutaneously injected into the right and left flanks of male nude/nu/nu athymic mice, respectively. Tumor-bearing mice were sacrificed after 6-8 weeks and tumor masses were measured or imaged before excision. Tumor lysates were prepared by homogenization of tumor tissues in RIPA lysis buffer and were resolved by SDS-PAGE and transferred onto PDVF membranes and immunoblotted with anti-ME2 antibody and normalized by β-tubulin as a loading control.

ME2-C = target: T1, ME2-C (Homo sapiens, UniProt P23368); experiment: In vitro activity of modified ME2 (ME2-C), absorbance at 340 nm; format: biochemical; details: 5, 15 and 45 mM DMM; 15 mM L-malate, 1 mM NAD+, 60 nM ME2-C, 37° C.
T1 construct: His tag (C); FLAG tag (cleavable) (C); made in house; host or cells: E. coli BL21(DE3)
T1 sequence (P23368 19-584): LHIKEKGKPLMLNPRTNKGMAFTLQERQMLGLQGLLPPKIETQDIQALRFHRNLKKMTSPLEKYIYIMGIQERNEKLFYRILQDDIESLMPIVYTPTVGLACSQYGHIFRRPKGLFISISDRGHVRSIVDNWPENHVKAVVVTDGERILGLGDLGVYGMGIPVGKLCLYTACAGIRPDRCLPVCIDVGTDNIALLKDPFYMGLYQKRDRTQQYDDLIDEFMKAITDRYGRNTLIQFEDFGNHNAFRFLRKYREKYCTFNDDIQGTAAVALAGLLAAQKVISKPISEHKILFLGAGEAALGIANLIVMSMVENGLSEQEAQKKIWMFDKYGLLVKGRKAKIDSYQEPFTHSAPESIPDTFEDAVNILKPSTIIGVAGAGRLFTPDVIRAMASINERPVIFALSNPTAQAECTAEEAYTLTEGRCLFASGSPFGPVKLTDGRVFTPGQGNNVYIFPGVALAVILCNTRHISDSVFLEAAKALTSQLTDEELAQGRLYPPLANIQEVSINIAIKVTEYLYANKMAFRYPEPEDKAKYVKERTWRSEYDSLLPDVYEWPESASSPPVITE
Experimental: Modified ME2 is a recombinant ME2 protein having a C-terminus His tag and lacking the mitochondrial targeting sequence (ME2-C) was prepared, as described in Loeber et al., J. Biol. Chem. 266:3016-3021 (1991). The 200 μl assay mixture contained 30 mM of Tris-HCl (pH 7.4), 15 mM of L-malate (pH 7.4), 1 mM of NAD^+, 2 mM of MnCl2, and 60 nM of ME2-C. Different concentrations of DMM (pH 7.4) were tested, namely 5, 15 and 45 mM. The absorbance of the solution at 340 nm was monitored continuously with a Beckman Coulter DTX 880 multimode spectrophotometer at 37° C.
To further determine compounds that can be used to inhibit ME2 and/or increase intracellular malate, or a derivative thereof, an ME2 assay was established. Accordingly, a modified ME2 protein was constructed using a human ME2 expression vector and a bacterial expression system (E. coli BL21(DE3)) with a cleavable FLAG tag. Both N- and C-terminal constructs were assessed for protein production, and the mitochondrial targeting sequence was deleted in the constructs, as described in Loeber et al., J. Biol. Chem. 266:3016-3021 (1991), which is incorporated herein by reference. Kinetic experiments were performed with C-terminal tagged ME2 (ME2-C) and with an assay mixture containing 30 mM of Tris-HCl (pH 7.4), 15 mM of L-malate (pH 7.4), 1 mM of NAD+, 2 mM of MnCl2, and 60 nM of ME2-C. […]

A549 cells [7] = experiment: Survival of A549 cells in Hams/F12 medium without glucose, pyruvate and glutamine; format: cell-based, human; details: control and ME2 knockdown A549 cells, medium without pyruvate, glutamine
Experimental: A549 control or ME2 knockdown cells were grown in Hams/F12 based medium without glucose, pyruvate and glutamine. Different concentrations of glutamine were supplemented as indicated. The alive cells were stained with Nexin/7-ADD and analyzed by FACS. B: Exogenous supplementation of pyruvate can rescue ME2 depletion induced cell death. A549 control or ME2 knockdown cells were grown in Hams/F12 based medium without glucose, pyruvate and glutamine. Different concentrations of pyruvate were supplemented as indicated. The alive cells were stained with Nexin/7-ADD and analyzed by FACS. C and D: The effect of ME2 knockdown on de novo synthesis of PC is greater with ^13C6-Glc than with ^13C5, 1^5N2-Gln as tracer, as analyzed by FT-ICR-MS. E: Inhibition of ^13C3-citrate synthesis from ^13C6-Glc by ME2 knockdown, as determined by GC-MS. […] G and H: Effects of ME2 knockdown on the levels and fractional distribution of ^13C isotopologues of malate, as analyzed by GC-MS; rectangles depict ^13C2- (m2) and ^13C3-malate (m3) species as markers of the first turn of the Krebs cycle without and with pyruvate carboxylation input, respectively. […]

[8] = direct intratumoral injection, vs PBS

COC(=O)CC(O)C(=O)OC (centres unmarked) [DMM, dimethyl malate]
proliferation of A549 cells (A549 cells [1]; 10 and 20 mM DMM, control (pLKO) and ME2 knockdown (shME2-3) A549 cells): significantly inhibited | sensitivity of ME2 knockdown cells to DMM treatment compared to control cancer cells (A549 cells [1]; shME2-3 vs pLKO A549 cells): more sensitive | mode of cell death induced by DMM (annexin V assay) (A549 cells [2]; A549 cells): induced necrosis in A549 cells rather than apoptosis | cell death in A549 cancer cell (A549 cells [2]; compared with normal cell lines): selectively induced cell death | time course of DMM-induced ROS production (A549 cells [3]; 3 h to 3 days): time-dependent | ROS production (CM-H2DCFDA) (A549 cells [3]; A549 cells, exogenous DMM 5, 10, 20 mM): enhanced production of ROS | E-cadherin expression (Akt and PDK1; A549 cells in vitro): increased | basal Akt and PDK1 activity (Akt and PDK1; A549 cells in vitro, p-AKT473 and p-PDK1): inhibited | superoxide (MitoSOX Red) (A549 cells [4]; 20 mM DMM for four days): increased presence of superoxide | ROS production in normal cell lines [5]: enhanced ROS production | cell death in normal cell lines [6]: not in the normal cell lines | A549 tumor growth in vivo (A549 xenograft tumors; 0.5 g/kg of DMM): significantly inhibited | tumor size after direct injection into A549 xenograft tumors (A549 xenograft tumors; [8]): decreases in tumor size | tumor tissue appearance after direct injection into A549 xenograft tumors (A549 xenograft tumors; [8]): ulceration of the tumor tissue | activity of ME2-C (ME2-C): decreased the activity

N[C@@H](CCC(=O)N[C@@H](CS)C(=O)NCC(=O)O)C(=O)O [GSH, reduced glutathione]
DMM-induced cell death (A549 cells [2]): almost completely inhibited | DMM-induced ROS production (A549 cells [3]): inhibited | DMM-induced differentiation (Akt and PDK1): reversed the DMM-induced differentiation | basal Akt activity in DMM-treated A549 cells (Akt and PDK1): rescued basal Akt activity

CC(=O)N[C@@H](CS)C(=O)O [NAC, N-acetyl-cysteine]
DMM-induced cell death (A549 cells [2]): almost completely inhibited | cell death induced by ME2 knockdown, rescue by antioxidant (A549 cells [2]; ME2 depleted cells): failed to rescue | DMM-induced ROS production (A549 cells [3]): inhibited | DMM-induced differentiation (Akt and PDK1): reversed the DMM-induced differentiation | basal Akt activity in DMM-treated A549 cells (Akt and PDK1): rescued basal Akt activity | superoxide production in DMM-treated cells (A549 cells [4]; DMM together with 20 mM NAC): decreased levels of superoxide production

NC(=O)CC[C@H](N)C(=O)O [glutamine]
rescue of cell survival by supplementation (A549 cells [7]): rescued control cells more than ME2 knockdown cells
